Test results published in ChEMBL document CHEMBL4483862, “Open-source discovery of chemical leads for next-generation chemoprotective antimalarials” (2018).

Test system: Plasmodium berghei
Test: Luciferase/luciferin-expressing antifolate-resistant parasites were used to infect a culture of HepG2 cells that were pre-incubated with compounds. Infected hepatocytes emit light due to the luciferase reaction. Assay results are presented as the percent inhibition of light emission compared to control. […]
Assay type: functional
Details: sporozoite; for IC90: read-out: LUCIFERASE INFECTION ASSAY - IC90
[1] = read-out: LUCIFERASE INFECTION ASSAY - IC50

SMILES | IC90 [µM] | also measured
c1ccc2c(-c3cc(Nc4ccc5[nH]ccc5c4)ncn3)cccc2c1 | 4.49 | IC50 (HEPG2TOX_HILL_SLOPE 1.68, HEPG2TOX_R_SQUARED 0.859, PBLUC_HILL_SLOPE 1.6, PBLUC_R_SQUARED 0.806, read-out: LUCIFERASE INFECTION ASSAY - IC50): 1.13 µM
O=C(CNC(=O)c1ccc(N2CCCC2=O)cc1)NCCCn1cccn1 | > 10 | IC50 [1]: > 10 µM
FC(F)(F)Oc1cccc(-c2cnc3ccc(-c4cccs4)nn23)c1 | 7.53 | IC50 (PBLUC_HILL_SLOPE 4.13, PBLUC_R_SQUARED 0.323, read-out: LUCIFERASE INFECTION ASSAY - IC50): 4.43 µM
O=C(/C=C/C1=C(N2CCOCC2)C(=C\c2ccc(Cl)cc2)/CC1)C(F)(F)F | > 10 | IC50 [1]: > 10 µM
COCCCNC(=S)N/N=C/c1ccc(Cl)c(Cl)c1 | > 10.3 | IC50 [1]: > 10.3 µM
N#Cc1ccc(-c2cc(C3(CNc4cccc(OC(F)(F)F)c4)CC3)ccn2)cc1 | > 10 | IC50 (PBLUC_HILL_SLOPE 1.65, PBLUC_R_SQUARED 0.178, read-out: LUCIFERASE INFECTION ASSAY - IC50): > 10 µM
FC(F)(F)c1cc(NCc2ccccc2Cl)nc(-c2ccccn2)n1 | 6.29 | IC50 (PBLUC_HILL_SLOPE 3.68, PBLUC_R_SQUARED 0.577, read-out: LUCIFERASE INFECTION ASSAY - IC50): 3.46 µM
COC(=O)c1sc2[nH]c(COC(=O)c3ccccc3)nc(=O)c2c1C | > 10 | IC50 [1]: > 10 µM
Cc1cc(C(=O)OCC(=O)N(CCC#N)c2ccc(F)cc2)c2ccccc2n1 | > 10 | IC50 [1]: > 10 µM
C(=C(c1nc2ccccc2s1)c1nc2ccccc2s1)C1=C(c2ccccc2)Oc2ccccc2O1 | > 10 | IC50 (FFLUC_HILL_SLOPE 7.98, FFLUC_R_SQUARED 0.561, PBLUC_HILL_SLOPE 1.21, PBLUC_R_SQUARED 0.509, read-out: LUCIFERASE INFECTION ASSAY - IC50): 9.27 µM
CNC(=O)c1nn(CC2CCCCC2)c2c1CC(NC1CCCC1)CC2 (stereo not given) | > 9.2 | IC50 (PBLUC_HILL_SLOPE 1.5, PBLUC_R_SQUARED 0.479, read-out: LUCIFERASE INFECTION ASSAY - IC50): 4.38 µM
Cc1ccc(-c2cs/c(=N\c3ccc(C)c(C)c3)n2/N=C/c2ccc(O)cc2O)cc1 | > 10 | IC50 [1]: > 10 µM
Cc1cc(CN2CCc3ccccc3C2)c(C)cc1O | > 10 | IC50 (HEPG2TOX_HILL_SLOPE 17.5, HEPG2TOX_R_SQUARED 0.797, read-out: LUCIFERASE INFECTION ASSAY - IC50): > 10 µM
CCOc1cc2ncc(C#N)c(Nc3ccc(F)c(Cl)c3)c2cc1N | 6.3 | IC50 (HEPG2TOX_HILL_SLOPE 1.25, HEPG2TOX_R_SQUARED 0.941, PBLUC_HILL_SLOPE 3.96, PBLUC_R_SQUARED 0.532, read-out: LUCIFERASE INFECTION ASSAY - IC50): 3.61 µM
CCOc1ccc(OCC)c(NC(=O)/C=C/c2ccc(OCc3cn4ccccc4n3)cc2)c1 | > 10 | IC50 (PBLUC_HILL_SLOPE 4.17, PBLUC_R_SQUARED 0.3, read-out: LUCIFERASE INFECTION ASSAY - IC50): 8.87 µM
C=CCN(c1ccccc1Cl)S(=O)(=O)c1cc(C(=O)NCc2cn3cc(Cl)ccc3n2)ccc1Cl | > 10 | IC50 (FFLUC_HILL_SLOPE 155, FFLUC_R_SQUARED 0.0996, read-out: LUCIFERASE INFECTION ASSAY - IC50): > 10 µM
CC(=O)c1cccc(-c2cnc3ccc(Cc4ccccc4)nn23)c1 | 8.78 | IC50 (HEPG2TOX_HILL_SLOPE 1.13, HEPG2TOX_R_SQUARED 0.363, PBLUC_HILL_SLOPE 4.01, PBLUC_R_SQUARED 0.469, read-out: LUCIFERASE INFECTION ASSAY - IC50): 5.08 µM
CC(=O)c1c(C)[nH]c(C(=O)OCC(=O)Nc2ccccc2C(F)(F)F)c1C | > 10 | IC50 (HEPG2TOX_HILL_SLOPE 0.401, HEPG2TOX_R_SQUARED 0.713, read-out: LUCIFERASE INFECTION ASSAY - IC50): > 10 µM
FC(F)(F)Oc1cccc(-c2cnc3sc(NCCN4CCOCC4)nn23)c1 | > 7.98 | IC50 (PBLUC_HILL_SLOPE 2.27, PBLUC_R_SQUARED 0.551, read-out: LUCIFERASE INFECTION ASSAY - IC50): 5.39 µM
COc1cc(/C=C(/C(=O)OCC(=O)NC2CCCCC2C)c2ccc(-c3ccccc3)cc2)cc(OC)c1OC (stereo not given) | 3.8 | IC50 (HEPG2TOX_HILL_SLOPE 6.06, HEPG2TOX_R_SQUARED 0.736, PBLUC_HILL_SLOPE 16.1, PBLUC_R_SQUARED 0.664, read-out: LUCIFERASE INFECTION ASSAY - IC50): 3.32 µM

SMILES | IC90 [µM] | also measured
COC(=O)c1cnc(Sc2ccc(C(F)(F)F)cn2)c([N+](=O)[O-])c1 | > 9.18 | IC50 (HEPG2TOX_HILL_SLOPE 7.53, HEPG2TOX_R_SQUARED 0.667, PBLUC_HILL_SLOPE 5.12, PBLUC_R_SQUARED 0.221, read-out: LUCIFERASE INFECTION ASSAY - IC50): > 9.18 µM
CC(NC(=O)c1cn(C)c2ccccc12)c1ccccn1 (stereo not given) | > 2 | IC50 [1]: > 2 µM
CCn1c2ccccc2c2cc(NC(=O)COC(=O)C3CSC4(c5ccc(F)cc5)CCC(=O)N34)ccc21 (stereo not given) | > 10 | IC50 (HEPG2TOX_HILL_SLOPE 7.81, HEPG2TOX_R_SQUARED 0.779, read-out: LUCIFERASE INFECTION ASSAY - IC50): > 10 µM
COc1ccc(-c2cc(NS(=O)(=O)c3cccc(F)c3)n(-c3ccc(Cl)c(Cl)c3)n2)cc1 | > 6.7 | IC50 (HEPG2TOX_HILL_SLOPE 1.65, HEPG2TOX_R_SQUARED 0.946, PBLUC_HILL_SLOPE 2.05, PBLUC_R_SQUARED 0.116, read-out: LUCIFERASE INFECTION ASSAY - IC50): 2.95 µM
CC(Cn1cccn1)NCc1ccc(F)c(F)c1 (stereo not given) | > 10 | IC50 [1]: > 10 µM
Cn1ccc2cc(-c3cn4c(-c5ccccc5)cnc4cn3)ccc21 | 2.78 | IC50 (HEPG2TOX_HILL_SLOPE 1.3, HEPG2TOX_R_SQUARED 0.937, PBLUC_HILL_SLOPE 1.56, PBLUC_R_SQUARED 0.678, read-out: LUCIFERASE INFECTION ASSAY - IC50): 0.679 µM
NC(c1csc(NC(=O)Nc2ccccc2-c2ccccc2)n1)C1CCCCC1 (stereo not given) | > 8.12 | IC50 (PBLUC_HILL_SLOPE 15.5, PBLUC_R_SQUARED 0.0255, read-out: LUCIFERASE INFECTION ASSAY - IC50): 7.57 µM
CNC(=O)c1csc(C(O)c2cccc(C(F)(F)F)c2)n1 (stereo not given) | 3.81 | IC50 (HEPG2TOX_HILL_SLOPE 1.87, HEPG2TOX_R_SQUARED 0.885, PBLUC_HILL_SLOPE 18.2, PBLUC_R_SQUARED 0.279, read-out: LUCIFERASE INFECTION ASSAY - IC50): 3.38 µM
Cc1nn(CC(=O)NNC(=O)CC23CC4CC(CC(C4)C2)C3)c(=O)c2ccccc12 | 6.96 | IC50 (PBLUC_HILL_SLOPE 1.76, PBLUC_R_SQUARED 0.72, read-out: LUCIFERASE INFECTION ASSAY - IC50): 2 µM
COc1ccc(OC)c(-c2cs/c(=N\c3cccc(C)c3C)n2/N=C/c2ccc(C#N)cc2)c1 | > 10 | IC50 (HEPG2TOX_HILL_SLOPE 2.44, HEPG2TOX_R_SQUARED 0.954, PBLUC_HILL_SLOPE 4.56, PBLUC_R_SQUARED 0.492, read-out: LUCIFERASE INFECTION ASSAY - IC50): 6.34 µM
COc1cc(Cl)c(C)cc1-n1c(SCc2nnc(-c3cccs3)o2)nc2ccccc2c1=O | > 10 | IC50 (FFLUC_HILL_SLOPE 9.81, FFLUC_R_SQUARED 0.743, PBLUC_HILL_SLOPE 8.4, PBLUC_R_SQUARED 0.579, read-out: LUCIFERASE INFECTION ASSAY - IC50): 8.6 µM
c1csc(CNc2ccc3ncc(-c4ccc5[nH]ccc5c4)n3n2)c1 | > 9.55 | IC50 (HEPG2TOX_HILL_SLOPE 1.89, HEPG2TOX_R_SQUARED 0.971, PBLUC_HILL_SLOPE 2.39, PBLUC_R_SQUARED 0.271, read-out: LUCIFERASE INFECTION ASSAY - IC50): 4.86 µM
COc1cc(/C=C/C(=O)c2ccc(C#N)cc2)cc(Br)c1OCC(=O)N(C)C | > 10 | IC50 (PBLUC_HILL_SLOPE 20.1, PBLUC_R_SQUARED 0.243, read-out: LUCIFERASE INFECTION ASSAY - IC50): 9.62 µM
N#C/C(=C\c1ccc(C(F)(F)F)cc1)c1c[nH]c2ccccc12 | > 10.6 | IC50 (FFLUC_HILL_SLOPE 17.8, FFLUC_R_SQUARED 0.181, PBLUC_HILL_SLOPE 2.5, PBLUC_R_SQUARED 0.114, read-out: LUCIFERASE INFECTION ASSAY - IC50): > 10.6 µM
CN(C)c1ccc(-c2cc(Nc3cccc(OCc4ccccc4)c3)ncn2)cc1 | 1.61 | IC50 (HEPG2TOX_HILL_SLOPE 1.6, HEPG2TOX_R_SQUARED 0.897, PBLUC_HILL_SLOPE 1.97, PBLUC_R_SQUARED 0.838, read-out: LUCIFERASE INFECTION ASSAY - IC50): 0.526 µM
CN(C)c1cccc(-c2cnc3cnc(-c4cccc(C(=O)NCCO)c4)cn23)c1 | > 8.22 | IC50 (PBLUC_HILL_SLOPE 1.98, PBLUC_R_SQUARED 0.622, read-out: LUCIFERASE INFECTION ASSAY - IC50): 5.11 µM
CN1CCN(c2ccc(CNS(=O)(=O)c3cccs3)cn2)CC1 | > 2 | IC50 [1]: > 2 µM
Cc1ccc(Cn2nc(C)c(/C=C/C(=O)N3CCN(S(=O)(=O)c4cccs4)CC3)c2C)cc1 | > 10 | IC50 (HEPG2TOX_HILL_SLOPE 1.48, HEPG2TOX_R_SQUARED 0.941, PBLUC_HILL_SLOPE 12.2, PBLUC_R_SQUARED 0.462, read-out: LUCIFERASE INFECTION ASSAY - IC50): 9.53 µM
O=C(NNC(=O)c1cc(-c2ccc(Cl)s2)nc2ccccc12)c1cnccn1 | 1.27 | IC50 (HEPG2TOX_HILL_SLOPE 2.73, HEPG2TOX_R_SQUARED 0.802, PBLUC_HILL_SLOPE 17.7, PBLUC_R_SQUARED 0.568, read-out: LUCIFERASE INFECTION ASSAY - IC50): 1.12 µM
Cc1nc2ccc(N/N=C(/C(=O)Nc3c(Cl)cccc3Cl)C(=O)c3ccccc3)cc2s1 | 8.28 | IC50 [1]: 5.17 µM
